Data reported in patent publication US20130225603A1, “MDM2 INHIBITORS FOR TREATMENT OF OCULAR CONDITIONS” (SERRATA LLC, priority 2010, published 2013).
“Also recorded” adds a separate entry of the source.

Experiments:
[1] = tested on: retinal vessels of adult mice; test: In vivo adult retinal vessel assay (intravitreal injection); set-up: species or system mouse; details: five days after injection
Experimental: Adult, three month old, 129 and C57/BL6/129S mice were anesthetized with Avertin and also given a drop of topical proparacaine 1% for local anesthesia. Using a stereo microscope, a glass capillary pipette was used to inject 1 μL of either vehicle or racemic Nutlin-3 into the vitreous of cavity of both eyes of each animal. Mice were then euthanized five days after injection. All procedures involving mice were approved and monitored by the Weill Medical College of Cornell University and Hospital for Special Surgery Animal Care and Use Committees. The eyes were then fixed in 4% paraformaldeheyde overnight and washed three times with PBS. After removing the cornea and lens, the hyaloidal (primitive) vasculature was removed and four radial incisions were made in the eyecup to flatten the retina/choroid/sclera complex. The choroid and sclera were removed from the retina and cut at the optic nerve. After the retinal wholemount was blocked with 5% bovine serum albumin, 5% normal donkey serum, and 0.5% TritonX-100 for 3 hours or overnight, the wholemount was incubated with a 1:200 dilution of GS-IB4 lectin overnight and mounted with Vectashield (Vector Laboratories). […]

HRMECs [2] = test: Apoptosis of HRMECs in serum (TUNEL); type: cell-based, human; details: HRMECs in serum (10% FBS)
Experimental: HUVECs were plated on collagen coated plastic bottom culture dishes (MatTek Corp., Ashland, Mass.) overnight. […] HRMEC were treated with 15 μM of racemic Nutlin for 24 hours in 10% FBS. The TUNEL assay was performed following instructions provided with the kit (Roche Applied Science, Indianapolis, Ind.). Representative images of the HRMEC experiment were provided with a 4× objective using an Olympus AX70 fluorescence microscope following the addition of a nuclear counter stain. For HUVEC experiments, 5 representative fields with a 20× objective using a Zeiss confocal microscope were captured. 2 masked observers performed cell counts. For wholemount retina staining, TUNEL solution was incubated for 48 hours diluted in PBS plus 0.3% Triton-X 100 after lectin staining.

p53 = p53 expression in HRMECs; type: cell-based, human; details: racemic Nutlin-3, 10% FBS
Experimental: HUVECs and HUVSMCs were incubated at 2×10^6 in X-VIVO media and HRMECs in EBM with 10% FBS under various conditions as reported in the results. Western blot extracts were prepared by lysing cells attached cells in cold RIPA buffer in the presence of protease inhibitors for HUVEC and HUVSMC and passive lysis buffer (Promega, Madison, Wis.) for HRMEC. After sonication and centrifugation to remove cell debris, the protein yield was quantified using the BCA protein assay kit (Pierce Biotechnology Inc., Rockford, Ill.). Normalized cell lysates were then mixed with sample buffer containing 2-mercaptoethanol and SDS and heated for 5 minutes at 95° C. Equal amounts of protein were run on SDS-polyacrylamide gels before being transferred to PVDF membranes. Binding of the primary antibody against p53, p21, and beta actin was detected with enhanced chemiluminescence reagent (Amersham) using HRP-conjugated secondary antibody (1:10,000, Amersham).

HRMECs [3] = test: Cell viability/proliferation, HRMECs in serum; type: cell-based, human; details: racemic Nutlin-3
Experimental: Cells were seeded at a concentration of 2×10^5 for HUVECs and 2×10^4 for HUVSMCs in serum free media on 12 well plates after detachment. The cells were allowed to adhere overnight in growth media, and then incubated with X-VIVO media (Cambrex) with or without cytokines (10 ng/ml FGF-2 and 2 μg/ml heparin or 10 ng/ml VEGF-A). For HRMEC experiments, cells were seeded at a concentration of 1×10^5 and allowed to settle overnight in 6-cm plates coated with attachment factor (Cell Signaling, Danvers, Mass.). The next day, fresh 10% FBS and EBM medium was added. […] After incubation, HUVEC were detached with collagenase/EDTA and HUVSMC and HRMEC were detached with trypsin/EDTA. The cells were manually counted with a Hemacytometer (Hausser Scientific, Horsham, Pa.) using Trypan blue exclusion.

HUVECs = test: Apoptosis of endothelial cells (HUVECs) in serum enriched media; type: cell-based, human
[4] = tested on: retinal vasculature of mouse pups; test: In vivo retinal vascular development assay (subcutaneous and periocular injection)
Experimental: A technique described by Strombland et al. was modified to study the effects of Nutlin-3 on in vivo vascular development (see Stromblad S, Fotedar A, Brickner H, et al., J. Biol. Chem. 277:13371-13374 (2002), which is incorporated herein by reference. Briefly, racemic Nutlin was administered by subcutaneous injection in the nape of the neck or in the periocular area of each eye to wild type 129 S1-VIMJ (Jackson Laboratories, Bar Harbor, Me.) mouse pups within 12 hours of birth. The mice received a total of 4 (periocular experiments) or 5 (subcutaneous neck experiments) injections of either racemic Nutlin or 100% DMSO. The first injection of Nutlin was administered at a dose of 40 mg/kg while the rest were given at a dose of 80 mg/kg for experiments involving injections in the nape of the neck. A dose of 80 mg/kg was administered for all injections in the periocular series of experiments. The pups were euthanized on postnatal day 3 and the eyes were enucleated after the fused eyelids incised.
The eyes were then fixed in 4% paraformaldeheyde overnight and washed three times with PBS. After removing the cornea and lens, the hyaloidal (primitive) vasculature was removed and four radial incisions were made in the eyecup to flatten the retina/choroid/sclera complex. The choroid and sclera were removed from the retina and cut at the optic nerve. After the retinal wholemount was blocked with 5% bovine serum albumin, 5% normal donkey serum, and 0.5% TritonX-100 for 3 hours or overnight, the wholemount was incubated with a 1:200 dilution of GS-IB4 lectin overnight and mounted with Vectashield (Vector Laboratories). For double staining wholemount experiments, retinas were incubated with primary antibody overnight at 4° C., underwent 6 one hour washes with PBS-T, followed by incubation with secondary antibody overnight at 4° C., followed by 6 one hour washes with PBS-T prior to being cover-slipped with Vectashield. Using a fluorescent biomicroscope (Carl Zeiss Discovery V12, Thornwood, N.Y.) hyaloidal vessels, vessels connected to the optic nerve, on the surface of the retina, were dissected in a masked manner. A confocal laser (Carl Zeiss LSM 510 meta) was used to obtain images of the retinal vasculature.
We captured images with the same laser power, objective, gain, pinhole, and amplifier offset. The resultant images were masked to the analyst assessing the images. All analyzed images were captured with a 5× objective and then exported to Adobe Photoshop 7.0 (San Jose, Calif.) as high-resolution .tiff images. Using the Magic Wand tool and histogram function, the analyst recorded the number of pixels that best represented the retinal vasculature and omitted the residual hyaloidal (fetal) vasculature that was unable to be removed during dissection. Blood vessels assessed to be residual hyaloid were found at a different focal plane than retinal blood vessels and were usually connected to the optic nerve.

For `COc1ccc(C2=NC(c3ccc(Cl)cc3)C(c3ccc(Cl)cc3)N2C(=O)N2CCNC(=O)C2)c(OC(C)C)c1` (racemic) [Nutlin-3, (±)-4-[4,5-bis(4-chlorophenyl)-2-(2-isopropoxy-4-methoxy-phenyl)-4,5-dihydro-imidazole-1-carbonyl]-piperazin-2-one], the “thickness of the neuronal cell layers of the neurosensory retina (hematoxylin and eosin)” value [1] was “did not observe any gross changes in the thickness of the neuronal cell layers”, the “retinal vasculature of adult mice compared to control” value ([1]; p>0.05) was “no reduction of the retinal vasculature; also recorded: no difference” and the “apoptosis in HRMECs” value (HRMECs [2]) was “induces apoptosis”. For the same compound, the “p53 expression in HRMECs” value (p53) was “upregulation of p53”, the HRMEC cell viability (HRMECs [3]) was “sufficient to inhibit cell viability” and the “apoptosis of endothelial cells” value (HUVECs) was “do not undergo apoptosis”. For the same compound, the “retinal vasculature compared to sham injected mice (images)” value ([4]; neonatal mice, periocular injection, FIG. 6E) was “less retinal vasculature”, the “fewer blood vessels compared to the sham-injected mice” value ([4]; neonatal mice, periorbital (periocular) injection, 80 mg/kg, postnatal day 3, p<0.01) was 43.8% and the “calibre of retinal vessels affected” value ([4]; neonatal mice, retinal wholemounts) was “loss of smaller caliber vessels; also recorded: preferentially targeted capillaries and smaller blood vessels”. For the same compound, the “reduction in the amount of retinal vessels compared to sham injected mice” value ([4]; neonatal mice, subcutaneous injection in the nape of the neck, 40 then 80 mg/kg, postnatal day 3, p<0.05) was 27.4%, the “retinal vasculature compared to sham injected mice (images)” value ([4]; neonatal mice, subcutaneous injection in the nape of the neck, FIG. 6B) was “abrogated” and the “TUNEL positive cells in the retinal vasculature” value ([4]; neonatal mouse retinal wholemount, GS-IB4 lectin co-staining, rare event) was “TUNEL positive cells that co-localized to the retinal endothelium”.
